# According to article PMC5051147, “Ester Hydrolysis Differentially Reduces Aconitine-Induced Anti-hypersensitivity and Acute Neurotoxicity: Involvement of Spinal Microglial Dynorphin Expression and Implications for Aconitum Processing” (Frontiers in Pharmacology, 2016):
# “Also recorded” adds a separate entry of the source.
# How the values were obtained:
# [1] = test system: prodynorphin gene expression in primary cultures of spinal microglia; assay: Prodynorphin gene expression in cultured primary spinal microglia (real-time quantitative PCR); assay type: cell-based, rat
# Description: Glial cells were isolated from the 1-day-old neonatal rats. The isolated spinal cords were minced and then incubated with trypsin. Dissociated cells were suspended in 75-cm^2 tissue culture flasks (1 × 10^7 cells/flask) precoated with poly-L-lysine and maintained in a 5% CO2 incubator at 37°C. After culture for 10 days, the microglial cells were prepared as floating cell suspensions by shaking the flask at 260 rpm for 2 h. The aliquots were transferred to plates, and the unattached cells were removed by washing with serum-free Dulbecco’s modified Eagle’s medium.
# RNA extraction, reverse transcription, and real-time quantitative PCR were performed as previously described ([Chen et al., 2012]). The spinal lumbar enlargements of rats were collected and mechanically homogenized with an electronic microhomogenizer at 4,000 rpm for 10 s in TRIzol on ice. Total RNA from the spinal lumbar enlargements were isolated using TRIzol reagent (Invitrogen, Grand Island, NY, USA). A 1-μg sample of total RNA was reverse-transcribed with a ReverTra Ace qPCR RT-Kit (Toyobo, Japan). Real-time quantitative PCR was carried out with the Mastercycler ep realplex (Eppendorf, Germany) using the RealmasterMix (SYBR Green I) (Toyobo). The fold change was calculated with the 2^-ΔΔCt method after normalization to the gene of gapdh. […]
# The percentage of maximal possible effect (% MPE) was calculated using the following formula: (postdrug threshold in ipsilateral hindlimb – baseline threshold in ipsilateral hindlimb)/(baseline threshold in contralateral hindlimb – baseline threshold in ipsilateral hindlimb) × 100 ([Bowersox et al., 1996]). […] For the dose-response curve analysis, the parameters (i.e., minimum effect; Emax, median effective concentration or dose, or median toxic or lethal dose [EC50, ED50, TD50, or LD50], and Hill coefficient [n]) were calculated from the individual dose-response curves using the Prism program (version 5.01, GraphPad Software, San Diego, CA, USA). […]
# Primary cultures of microglial cells taken from the spinal cords of the neonatal rats were treated with a variety of concentrations of aconitine (1 × 10^-8, 3 × 10^-8, 1 × 10^-7, 3 × 10^-7, and 1 × 10^-6 M), benzolyaconine (3 × 10^-7, 1 × 10^-6, 3 × 10^-6, 1 × 10^-5, 3 × 10^-5, and 1 × 10^-4 M) and aconine (1 × 10^-4, 3 × 10^-4, 1 × 10^-3, 3 × 10^-3, and 1 × 10^-2 M) for 2 h. As the bulleyaconitine A-increased dynorphin A level measured by the enzyme-linked immunosorbent assay was in parallel with the prodynorphin gene expression in spinal microglia from neonatal and adult rats ([Li et al., 2016]), the expression of the cellular prodynorphin gene encoding dynorphin A was only measured in this study using real-time quantitative PCR. […]
# [2] = test system: mechanical allodynia in spinal L5/L6 nerve–ligated neuropathic rats; assay: Mechanical allodynia (von Frey paw withdrawal threshold) after intrathecal injection in spinal nerve-ligated neuropathic rats; assay type: in vivo, rat
# Description: An 18-cm polyethylene catheter (PE-10: 0.28-mm inner diameter and 0.61-mm outer diameter, Clay Adams, Parsippany, NJ, USA) with a volume of 13 μL was inserted into the lumbar level of the spinal cord as described elsewhere under inhalational isoflurane anesthesia (4% for induction and 1% for maintenance) run by an anesthesia meter (Ugo Basile Gas Anesthesia System, Comerio, Italy). Two days after recovery from anesthesia, the placement of the catheter in the spinal cord was verified by administration of 4% lidocaine (10 μL, followed by 15 μL of saline for flushing). Rats that had no motor impairment after placement of the intrathecal catheter were considered for the study, and rats that developed immediate bilateral paralysis of the hindlimbs after intrathecal administration of lidocaine were selected for the study. For intrathecal administration of the control and test articles, 10 μL of each drug was injected with a 50-μL microinjector (Shanghai Anting Micro-Injector Factory, Shanghai, China) and was flushed with 15 μL of normal saline solution.
# To induce hypersensitivity to neuropathic pain, the rats were subjected to spinal nerve ligation as previously described [Kim and Chung (1992)] and [Zhang et al. (2013)]. Unilateral ligation of the L5 and L6 spinal nerves was performed under inhalational isoflurane anesthesia (4% for induction and 1% for maintenance) run by an anesthesia meter (Ugo Basile Gas Anesthesia System). The left L5 and L6 spinal nerves were isolated and tightly ligated with 6-0 silk thread. After ligation, the wound was sutured and the rats were returned to their home cages for recovery. After spinal nerve ligation, only those rats with marked unilateral allodynia to mechanical stimulation (i.e., a hindpaw withdrawal threshold of less than 8 g on the operated side) and with no major impairment were included in the study. Drug testing started 2–4 weeks after spinal nerve ligation.
# To evaluate mechanical allodynia, the animals were acclimatized for at least 30 min to the test environment, namely, a plexiglass box on a metal grid (0.5 cm × 0.5 cm). The hindpaw withdrawal threshold was measured with a 2450 CE Electronic von Frey hair (IITC Life Science Inc, Woodland Hill, CA, USA). An electronic handheld transducer with a No. 15 monofilament was applied perpendicularly to the medial surface of the hindpaws with increasing force (ranging from 0.1 to 90 g) until the rat suddenly withdrew or licked the hindpaw. The lowest force that produced a withdrawal response was considered to be the threshold, which was the mean of three repeated measurements made in a 5-min interval.
# The percentage of maximal possible effect (% MPE) was calculated using the following formula: (postdrug threshold in ipsilateral hindlimb – baseline threshold in ipsilateral hindlimb)/(baseline threshold in contralateral hindlimb – baseline threshold in ipsilateral hindlimb) × 100 ([Bowersox et al., 1996]). A % MPE value near 100 indicates normal mechanical thresholds (i.e., near contralateral thresholds), and a value near 0 indicates allodynia. For the dose-response curve analysis, the parameters (i.e., minimum effect; Emax, median effective concentration or dose, or median toxic or lethal dose [EC50, ED50, TD50, or LD50], and Hill coefficient [n]) were calculated from the individual dose-response curves using the Prism program (version 5.01, GraphPad Software, San Diego, CA, USA). To determine the parameters of the dose-response curves, the values of response (Y) were fitted by non-linear least-squares curves to the relation Y = a + bx, where x = [D]^n/(ED50^n + [D]^n), [C]^n/(EC50^n + [C]^n), [D]^n/(TD50^n + [D]^n) or [D]^n/(LD50^n + [D]^n), to give each value of ED50, EC50, TD50, or LD50 and b (Emax) yielding a minimum residual sum of squares of deviations from the theoretical curve ([Wang and Pang, 1993]).
smiles,measurement,setting,value
"CCN1C[C@]2(COC)[C@H](O)C[C@H](OC)[C@@]34[C@@H]5C[C@@]6(O)[C@H](OC(=O)c7ccccc7)[C@@H]5[C@@](OC(C)=O)([C@@H]([C@H](OC)[C@H]23)[C@@H]14)[C@@H](O)[C@@H]6OC [Aconitine, aconitine]",Potency on microglial dynorphin A expression relative to bulleyaconitine A (more potent by),[1]; EC50 32 nM versus 45 nM,approximately 0.5 fold
same,EC50,"[1]; Rattus norvegicus, primary spinal microglia of neonatal rats, 2 h incubation, read-out: EC50, stimulation of prodynorphin gene (dynorphin A) expression",32 nM
same,Anti-allodynic effect in ipsilateral paws,[2]; intrathecal 100 ng,marked and reversible anti-allodynic effect; also recorded: marked and reversible anti-allodynia
same,Time of peak effect on mechanical allodynia and heat hyperalgesia,"[2]; intrathecal, ipsilateral paws, after injection",1 h
same,"Emax, blockade of mechanical allodynia","[2]; intrathecal, 1 h after injection",61.9 % MPE
same,"ED50, blockade of mechanical allodynia","[2]; intrathecal, % MPE at 1 h after injection",39 pmol
same,Effect on withdrawal responses in the contralateral paws,"[2]; intrathecal, mechanical and thermal stimuli",did not significantly alter the withdrawal responses in the contralateral paws
